In ChEMBL document CHEMBL4311957, “Recent advances in natural antifungal flavonoids and their derivatives” (Bioorg Med Chem Lett, 2019):
Converted amounts (≈) assume the structure as drawn. One block for each compound: values may come before it.

Key:
[1] = test system: Cryptococcus neoformans; assay: Antifungal activity against Cryptococcus neoformans; assay type: functional
[2] = test system: Aspergillus fumigatus; assay: Antifungal activity against Aspergillus fumigatus; assay type: functional
[3] = test system: Candida albicans; assay: Antifungal activity against Candida albicans after 48 hrs by broth micro dilution method; assay type: functional
[4] = test system: Candida parapsilosis; assay: Antifungal activity against Candida parapsilosis after 48 hrs by broth micro dilution method; assay type: functional; conditions: Lodderomyces parapsilosis
[5] = test system: Cryptococcus neoformans; assay: Antifungal activity against Cryptococcus neoformans after 48 hrs by broth micro dilution method; assay type: functional
[6] = test system: Trichophyton rubrum; assay: Antifungal activity against Trichophyton rubrum; assay type: functional
[7] = test system: Candida albicans; assay: Antifungal activity against Candida albicans; assay type: functional, organism-based
[8] = test system: Candida parapsilosis; assay: Antifungal activity against Candida parapsilosis; assay type: functional; conditions: Lodderomyces parapsilosis
[9] = test system: Aspergillus fumigatus; assay: Fungicidal activity against Aspergillus fumigatus ATTC 26934 after 48 hrs; assay type: functional; conditions: ATTC 26934, 48 h
[10] = test system: Candida parapsilosis; assay: Antifungal activity against Candida parapsilosis 96 by microdilution method; assay type: functional; conditions: Lodderomyces parapsilosis
[11] = test system: Candida tropicalis; assay: Antifungal activity against Candida tropicalis 166 by microdilution method; assay type: functional
[12] = test system: Pichia kudriavzevii; assay: Antifungal activity against Candida krusei 168 by microdilution method; assay type: functional
[13] = test system: Candida albicans; assay: Antifungal activity against Candida albicans 501 by microdilution method; assay type: functional
[14] = test system: Candida albicans; assay: Antifungal activity against Candida albicans 498 by microdilution method; assay type: functional
[15] = test system: Candida albicans; assay: Antifungal activity against Candida albicans 53 by microdilution method; assay type: functional
[16] = test system: Candida albicans; assay: Antifungal activity against Candida albicans ATCC 10231 by microdilution method; assay type: functional
[17] = test system: Nakaseomyces glabratus; assay: Antifungal activity against Candida glabrata 507 by microdilution method; assay type: functional
[18] = test system: Nakaseomyces glabratus; assay: Antifungal activity against Candida glabrata 531 by microdilution method; assay type: functional
[19] = test system: Nakaseomyces glabratus; assay: Antifungal activity against Candida glabrata 587 by microdilution method; assay type: functional
[20] = test system: Nakaseomyces glabratus; assay: Antifungal activity against Candida glabrata 510 by microdilution method; assay type: functional
[21] = test system: Nakaseomyces glabratus; assay: Antifungal activity against Candida glabrata 493 by microdilution method; assay type: functional
[22] = test system: Nakaseomyces glabratus; assay: Antifungal activity against Candida glabrata 482 by microdilution method; assay type: functional
[23] = test system: Nakaseomyces glabratus; assay: Antifungal activity against Candida glabrata ATCC 90030; assay type: functional
[24] = test system: Nakaseomyces glabratus; assay: Antifungal activity against Candida glabrata WT-5; assay type: functional
[25] = test system: Pichia kudriavzevii; assay: Antifungal activity against Candida krusei ATCC 6258; assay type: functional
[26] = test system: Pichia kudriavzevii; assay: Antifungal activity against Candida krusei CK25; assay type: functional
[27] = test system: Candida parapsilosis; assay: Antifungal activity against Candida parapsilosis ATCC 22014; assay type: functional; conditions: Lodderomyces parapsilosis
[28] = test system: Candida parapsilosis; assay: Antifungal activity against Candida parapsilosis 90/2224; assay type: functional; conditions: Lodderomyces parapsilosis
[29] = test system: Candida albicans; assay: Antifungal activity against Candida albicans NBRC 1385 by microdilution method; assay type: functional
[30] = test system: Trichophyton rubrum; assay: Antifungal activity against Trichophyton rubrum NBRC 5467 by microdilution method; assay type: functional
[31] = test system: Trichophyton mentagrophytes; assay: Antifungal activity against Trichophyton mentagrophytes IFM 46027 by microdilution method; assay type: functional
[32] = test system: Aspergillus fumigatus; assay: Antifungal activity against Aspergillus fumigatus NBRC 4400 by microdilution method; assay type: functional
[33] = test system: Cryptococcus neoformans; assay: Antifungal activity against Cryptococcus neoformans after 72 hrs; assay type: functional
[34] = test system: Candida albicans; assay: Antifungal activity against Candida albicans ATCC 10231 after 48 hrs by CLSI-based broth microdilution method; assay type: functional; conditions: ATCC 10231, 48 h
[35] = test system: Candida tropicalis; assay: Antifungal activity against Candida tropicalis CCC 131-2000 after 48 hrs by CLSI-based broth microdilution method; assay type: functional; conditions: CCC 131-2000, 48 h
[36] = test system: Cryptococcus neoformans; assay: Antifungal activity against Cryptococcus neoformans ATCC 32264 after 48 hrs by CLSI-based broth microdilution method; assay type: functional; conditions: ATCC 32264, 48 h
[37] = test system: Saccharomyces cerevisiae; assay: Antifungal activity against Saccharomyces cerevisiae ATCC 9763 after 48 hrs by CLSI-based broth microdilution method; assay type: functional; conditions: ATCC 9763, 48 h
[38] = test system: Nannizzia gypsea; assay: Antifungal activity against Microsporum gypseum after 5 days; assay type: functional; conditions: 120 h
[39] = test system: Trichophyton mentagrophytes; assay: Antifungal activity against Trichophyton mentagrophytes after 5 days; assay type: functional; conditions: 120 h
[40] = test system: Trichophyton rubrum; assay: Antifungal activity against Trichophyton rubrum after 5 days; assay type: functional; conditions: 120 h
[41] = test system: Trichophyton tonsurans; assay: Antifungal activity against Trichophyton tonsurans after 5 days; assay type: functional; conditions: 120 h
[42] = test system: Cryptococcus gattii; assay: Antifungal activity against Cryptococcus gattii after 72 hrs; assay type: functional, Cryptococcus gattii VGI
[43] = test system: Trichophyton rubrum; assay: Antifungal activity against Trichophyton rubrum ATCC MYA3108 by CLSI-based microdilution method; assay type: functional
[44] = test system: Trichophyton rubrum; assay: Antifungal activity against Trichophyton rubrum deltaTruMDR2 by CLSI-based microdilution method; assay type: functional

Structure (SMILES): CC(=O)c1c(O)c(C)c(O)c(Cc2c(O)c(C(=O)/C=C/c3ccc(O)cc3)c3c(c2O)[C@@H]2Oc4c(Cc5c(O)c(O)c(O)c(C(C)=O)c5O)c(O)c(C(=O)/C=C/c5ccc(O)cc5)c5c4[C@H](CC(C)(C)O5)[C@H]2C(C)(C)O3)c1O
- MIC50 [1]: 4 to 8 µg/mL (≈ 3.75 to 7.5 µM)
- MIC50 [2]: 16 µg/mL (≈ 15 µM)

Structure (SMILES): Nc1ccccc1C(=O)/C=C/c1cccc(F)c1
- MIC [6]: 0.5 µg/mL

Structure (SMILES): C[C@@H]1O[C@@H](Oc2c(-c3ccc(O)c(O)c3)oc3cc(O)cc(O)c3c2=O)[C@H](O)[C@H](O)[C@H]1O [QUERCITRIN]
- MIC [10]: > 83 µg/mL
- MIC [11]: > 83 µg/mL
- MIC [12]: > 83 µg/mL
- MIC [13]: > 83 µg/mL
- MIC [14]: > 83 µg/mL
- MIC [15]: > 83 µg/mL
- MIC [16]: > 83 µg/mL
- MIC [17]: 7.8 to 62.5 µg/mL (≈ 17.4 to 139 µM)
- MIC [18]: 7.8 to 62.5 µg/mL (≈ 17.4 to 139 µM)
- MIC [19]: 7.8 to 62.5 µg/mL (≈ 17.4 to 139 µM)
- MIC [20]: 7.8 to 62.5 µg/mL (≈ 17.4 to 139 µM)
- MIC [21]: 7.8 to 62.5 µg/mL (≈ 17.4 to 139 µM)
- MIC [22]: 7.8 to 62.5 µg/mL (≈ 17.4 to 139 µM)

Structure (SMILES): C=C(C)CC(O)c1c(O)ccc(C(=O)/C=C/c2ccc(O)cc2)c1O (centres undefined)
- MIC50 [1]: 7 µg/mL (≈ 20.6 µM)
- MIC50 [7]: 15 µg/mL (≈ 44.1 µM)

Structure (SMILES): O=c1cc(-c2ccc(O)c(O)c2)oc2cc(O)cc(O)c12 [LUTEOLIN]
- MIC [6]: 250 µg/mL
- MIC [10]: > 83 µg/mL
- MIC50 [10]: 13 to 104 µg/mL (≈ 45.4 to 363 µM)
- MIC [11]: > 83 µg/mL
- MIC50 [11]: 13 to 104 µg/mL (≈ 45.4 to 363 µM)
- MIC [13]: > 83 µg/mL
- MIC [14]: > 83 µg/mL
- MIC [15]: > 83 µg/mL
- MIC [16]: > 83 µg/mL
- MIC [17]: 3.9 to 7.8 µg/mL (≈ 13.6 to 27.2 µM)
- MIC [18]: 3.9 to 7.8 µg/mL (≈ 13.6 to 27.2 µM)
- MIC [19]: 3.9 to 7.8 µg/mL (≈ 13.6 to 27.2 µM)
- MIC [20]: 3.9 to 7.8 µg/mL (≈ 13.6 to 27.2 µM)
- MIC [21]: 3.9 to 7.8 µg/mL (≈ 13.6 to 27.2 µM)
- MIC [22]: 3.9 to 7.8 µg/mL (≈ 13.6 to 27.2 µM)
- MIC [23]: 52.7 µg/mL (≈ 184 µM)
- MIC [24]: 52.7 µg/mL (≈ 184 µM)
- MIC [25]: 2.7 µg/mL (≈ 9.43 µM)
- MIC [26]: 2.7 µg/mL (≈ 9.43 µM)
- MIC [27]: 5.4 µg/mL (≈ 18.9 µM)
- MIC [28]: 5.4 µg/mL (≈ 18.9 µM)
- MIC [29]: 30 µM (≈ 8.59 µg/mL)
- MIC [30]: 120 µM (≈ 34.3 µg/mL)
- MIC [31]: 60 µM (≈ 17.2 µg/mL)
- MIC [32]: 230 µM (≈ 65.8 µg/mL)

Structure (SMILES): Nc1ccccc1C(=O)/C=C/c1ccc([N+](=O)[O-])cc1
- MIC [6]: 0.5 µg/mL

Second part, led by results:

- MIC [3]: > 256 µg/mL
- MIC [4]: > 256 µg/mL
- MIC [5]: > 256 µg/mL
Structure (SMILES): C[C@@H]1O[C@@H](OC[C@H]2O[C@@H](Oc3c(-c4ccc(O)c(O)c4)oc4cc(O)cc(O)c4c3=O)[C@H](O)[C@@H](O)[C@@H]2O)[C@H](O)[C@H](O)[C@H]1O [RUTIN]

- MIC [7]: 2 to 32 µg/mL
- MIC [8]: 8 to 32 µg/mL (≈ 18.4 to 73.7 µM)
Structure (SMILES): O=c1c(O[C@@H]2O[C@@H](CO)[C@H](O)[C@H]2O)c(-c2ccc(O)c(O)c2)oc2cc(O)cc(O)c12 [AVICULARIN]
- MIC [9]: 2 to 16 µg/mL (≈ 4.6 to 36.8 µM)

- MIC [7]: 62.4 to 150 µM
- MIC [6]: 11.5 µM
Structure (SMILES): C=CC(C)(C)c1cc(/C=C/C(=O)c2ccc(O)cc2)c(OC)cc1O [LICOAGROCHACONE A]
- MFC [7]: 150 µM (≈ 50.8 µg/mL)

- MIC [10]: > 83 µg/mL
- MIC [11]: > 83 µg/mL
- MIC [12]: > 83 µg/mL
- MIC [13]: > 83 µg/mL
- MIC [14]: > 83 µg/mL
- MIC [15]: > 83 µg/mL
- MIC [16]: > 83 µg/mL
- MIC [17]: 3.9 to 15.6 µg/mL (≈ 16.4 to 65.5 µM)
- MIC [18]: 3.9 to 15.6 µg/mL (≈ 16.4 to 65.5 µM)
- MIC [19]: 3.9 to 15.6 µg/mL (≈ 16.4 to 65.5 µM)
- MIC [20]: 3.9 to 15.6 µg/mL (≈ 16.4 to 65.5 µM)
- MIC [21]: 3.9 to 15.6 µg/mL (≈ 16.4 to 65.5 µM)
- MIC [22]: 3.9 to 15.6 µg/mL (≈ 16.4 to 65.5 µM)
Structure (SMILES): O=c1c(O)c(-c2ccccc2)oc2ccccc12 [FLAVONOL]

- MIC [33]: 8 to 128 µg/mL (≈ 16.7 to 266 µM)
- MIC [23]: 8.53 µg/mL (≈ 17.8 µM)
- MIC [34]: 31.2 µg/mL (≈ 64.9 µM)
- MIC [35]: 31.2 µg/mL (≈ 64.9 µM)
- MIC [36]: 31.2 µg/mL (≈ 64.9 µM)
- MIC [37]: 31.2 µg/mL (≈ 64.9 µM)
- MIC [38]: 4 to 128 µg/mL (≈ 8.33 to 266 µM)
- MIC [39]: 4 to 128 µg/mL (≈ 8.33 to 266 µM)
- MIC [40]: 4 to 128 µg/mL (≈ 8.33 to 266 µM)
- MIC [41]: 4 to 128 µg/mL (≈ 8.33 to 266 µM)
- MIC [42]: 128 µg/mL (≈ 266 µM)
Structure (SMILES): O=c1c(O[C@@H]2O[C@H](CO)[C@@H](O)[C@H](O)[C@H]2O)c(-c2cc(O)c(O)c(O)c2)oc2cc(O)cc(O)c12

- MIC [3]: 256 µg/mL (≈ 551 µM)
- MIC [4]: 128 µg/mL (≈ 276 µM)
- MIC [5]: 128 µg/mL (≈ 276 µM)
Structure (SMILES): O=c1c(O[C@@H]2O[C@H](CO)[C@H](O)[C@H](O)[C@H]2O)c(-c2ccc(O)c(O)c2)oc2cc(O)cc(O)c12 [HYPEROSIDE]

- MIC [43]: > 1000 µg/mL
- MIC [44]: > 1000 µg/mL
Structure (SMILES): O=c1c(-c2ccc(O)cc2)coc2cc(O)cc(O)c12 [GENISTEIN]

- MIC [2]: 31.2 µg/mL (≈ 75.6 µM)
- MIC [7]: 15 µg/mL
Structure (SMILES): O=C(/C=C/c1ccc(Cl)cc1Cl)c1ccc(/N=N/c2c(O)cccc2O)cc1
